# Measurements from patent US20090028820A1, “Antiviral Agent” (MITSUBISHI TANABE PHARMA CORPORATION, priority 2005, published 2009).
# What was measured:
# [1] = test system: HCV-replicon cell clone #5-15 derived from Huh7; assay: Growth of HCV-replicon cell strain (Cell Titer 96 Aqueous One Solution Cell Proliferation Assay, absorbance 490 nm); format: cell-based, human; conditions: HGF 0, 10, 100 ng/ml; IFNα 0, 0.1, 0.3 IU/ml; 48 hours
# Experimental: To determine whether or not the decreases in the replication of HCV-replicons observed in Example 1 were attributable to the decrease in the cell count itself, the following experiment was performed.
# The clone #5-15 was suspended in Dulbecco's Eagle's MEM medium containing 2% fetal bovine serum, and seeded on a 96-well plate at 1.5×10^4 cells/100 μl/well. As blank, wells added with a medium alone was prepared without seeding cells (Day 0). After culture overnight in a humid incubator at 37° C. under 5% CO2 gas, 50 μl each of human recombinant IFNα (BIOMEDICAL LABORATORIES, Cat. No. 11105-1, lot No. #2122) and/or human recombinant HGF (produced in-house, Lot No. 920629) was added to each well. The final concentrations of IFNα were 0, 0.1 and 0.3 international unit (IU)/ml, the final concentrations of HGF were 0, 10 and 100 ng/ml, and the final volume was adjusted to 200 μl for all the wells. Three wells (triplicate) were prepared for each sample (Day 1). After culture for 48 hours, the number of cells was measured by Cell Titer 96 Aqueous One Solution Cell Proliferation Assay (Promega, Lot #171755), which is a type of cell growth assay kit. The measurement was performed according to the manual of the assay kit. […] Then, the plate was incubated for one hour in a humid incubator containing 5% CO2 set at 37° C., and then measured at absorbance 490 nm by using a 96-well plate reader.
# HCV-replicon = assay: Inhibition of HCV-replicon replication in HCV-replicon cells (quantitative PCR of replicon RNA); format: cell-based, Hepatitis C virus; conditions: for inhibition of replication of the HCV-replicon: HGF alone, clone #5-15, 48 hours
# Experimental: As a cell system for in vitro replication of HCV, an HCV-replicon cell clone #5-15 derived from the human liver cancer cell strain Huh7 was used (purchased from ReBLikon GmbH). The clone #5-15 was suspended in the Dulbecco's Eagle's MEM medium containing 2% fetal bovine serum, and seeded on a 96-well plate at 1.5×10^4 cells/100 μl/well. As blank, wells added with the medium alone was prepared without seeding the cells (Day 0). After culture overnight in a humid incubator at 37° C. under 5% CO2 gas, 50 μl each of human recombinant IFNα (BIOMEDICAL LABORATORIES, Cat. No. 11105-1, lot No. #2122) and/or human recombinant HGF (produced in-house, Lot No. 920629) was added to each well. The final concentrations of IFNα were 0, 0.1 and 0.3 international unit (IU)/ml, the final concentrations of HGF were 0, 10 and 100 ng/ml, and the final volume was adjusted to 200 μl for all the wells. Three wells (triplicate) were prepared for each sample (Day 1). After culture for 48 hours, total RNA was extracted from each well by using ABI-PRIZM 6100 Nucleic Acid PrepStation (Applied Biosystems). Extraction was performed according to the operation manual of the apparatus. The solution of the extracted RNA was stored at −80° C. (Day 3). The samples were thawed on the next day, and amounts of the HCV-replicon RNA were quantified by quantitative polymerase chain reaction (PCR). The quantification was performed according to the method of Takeuchi et al. (Takeuchi, T. et al., Gastroenterology, Vol. 116, 636-642 (1999)) by using ABI PRISM 7900 (Applied Biosystems).
# RNAs used in the quantitative PCR for a standard curve were prepared by in vitro transcription using a vector obtained by ligating the gene of the HCV MKC-1A strain (Genbank accession No. D45172) to the downstream of the T7 promoter using T7 RiboMAX Express Large Scale RNA Production System (Promega), and it was confirmed that linearity was obtainable between 10^2 and 10^8 in the aforementioned quantitative PCR.
# Hepatitis C virus = conditions: cited from earlier work
# HCV-subgenomic replicon = conditions: Huh7 cells; cited from earlier work
compound,measurement,setting,value
"HGF: human recombinant HGF (produced in-house, Lot No. 920629); hepatocyte growth factor",inhibition of growth of the HCV-replicon cell line,[1],not observed to inhibit the growth
same,effect of HGF on IFN-dependent inhibition of virus replication,HCV-replicon; HGF 10 ng/ml combined with IFN,synergistically enhanced
same,inhibition of replication of the HCV-replicon,HCV-replicon; 10 ng/ml,almost no inhibition of the replication was observed
same,inhibition of replication of the HCV-replicon,HCV-replicon; 100 ng/ml,inhibited the replication of the HCV-replicon
same,effect of HGF on inhibition of HCV-replicon replication by IFN,HCV-replicon; HGF combined with IFN 0.1 IU/ml,synergistically acted to inhibit the replication of HCV-replicons
same,effect of HGF on inhibition of HCV-replicon replication by IFN,HCV-replicon; HGF combined with IFN 0.3 IU/ml,effect of HGF was not observed
"NC(=O)c1ncn([C@@H]2O[C@H](CO)[C@@H](O)[C@H]2O)n1 [Ribavirin, ribavirin]",efficacy against HCV,Hepatitis C virus; agent alone,ineffective
COc1ccc2c(O[C@@H]3C[C@H]4C(=O)N[C@]5(C(=O)O)C[C@H]5/C=C\CCCCC[C@H](NC(=O)OC5CCCC5)C(=O)N4C3)cc(-c3csc(NC(C)C)n3)nc2c1 [BILN-2061],improvement of viremia,Hepatitis C virus; patients with hepatitis C,confirmed to improve viremia
same,inhibition of replication of replicon RNA,HCV-subgenomic replicon,inhibits replication of replicon RNA
